Experimental data: patent US4605744A, “Imidazole derivatives” (Hoffmann-La Roche Inc., priority 1985, dated 1986)
Counter-ions that a name gives are not always drawn. Like-named read-outs stand apart in the source and are kept apart here.

Assays:
Format in all cases: cell-based
[1] = tested on: E. coli 257; assay: In vitro antibacterial activity (MIC, Mueller-Hinton broth)
Experimental: Drug dilutions are prepared in Mueller-Hinton broth ranging from 128 to 0.008 μg/ml. The diluted agents are dispensed in 100 μl amounts into the wells of a 96-well tray and used immediately or frozen at -10° to -70° C. until needed. Using an automated inoculator, 1.5 μl of a 10^-2 dilution of an overnight culture is added to each well of the tray. The tops of the trays are then sealed using transparent tape and incubated overnight at 37° C. The trays are examined with the aid of a viewer. The lowest concentration at which no growth is observed is considered to be the minimum inhibitory concentration (MIC).

[2] = tested on: C. freundii 8ASM; assay: In vitro antibacterial activity (MIC); conditions: Citrobacter freundii, 8ASM
Method in brief: (§1)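 Overnight cultures, diluted 10^-2, were added at 1.5 μl per well to twofold drug series (128–0.008 μg/ml) in Mueller-Hinton broth.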

[3] = tested on: E. aerogenes 503-478; assay: In vitro antibacterial activity (MIC); conditions: Klebsiella aerogenes, 503478, E. aerogenes 503-478; read-out: MIC
Method in brief: as §1

[4] = tested on: E. aerogenes 8; assay: In vitro antibacterial activity (MIC)
Method in brief: as §1

[5] = tested on: E. cloacae 214; assay: In vitro antibacterial activity (MIC); conditions: Enterobacter cloacae, 214, E. cloacae 214; read-out: MIC
Method in brief: as §1

[6] = tested on: E. cloacae 24; assay: In vitro antibacterial activity (MIC); conditions: Enterobacter cloacae, 24, E. cloacae 24; read-out: MIC
Method in brief: as §1

[7] = tested on: E. cloacae 5699; assay: In vitro antibacterial activity (MIC); conditions: Enterobacter cloacae, 5699, E. cloacae 5699; read-out: MIC
Method in brief: as §1

[8] = tested on: E. cloacae 6951; assay: In vitro antibacterial activity (MIC)
Method in brief: as §1

[9] = tested on: E. cloacae 9570A; assay: In vitro antibacterial activity (MIC); conditions: Enterobacter cloacae
Method in brief: as §1

[10] = tested on: E. coli 503-455; assay: In vitro antibacterial activity (MIC)
Method in brief: as §1

[11] = tested on: K. pneumoniae 8357; assay: In vitro antibacterial activity (MIC)
Method in brief: as §1

[12] = tested on: P. aeruginosa 5700; assay: In vitro antibacterial activity (MIC); conditions: Pseudomonas aeruginosa, 5700, P. aeruginosa 5700; read-out: MIC
Method in brief: as §1

[13] = tested on: P. aeruginosa B; assay: In vitro antibacterial activity (MIC); conditions: Pseudomonas aeruginosa, read-out: MIC
Method in brief: as §1

[14] = tested on: P. aeruginosa POW 151; assay: In vitro antibacterial activity (MIC); conditions: Pseudomonas aeruginosa, POW151
Method in brief: as §1

[15] = tested on: P. mirabilis 190; assay: In vitro antibacterial activity (MIC); conditions: Proteus mirabilis, 190, P. mirabilis 190; read-out: MIC
Method in brief: as §1

[16] = tested on: P. mirabilis 90; assay: In vitro antibacterial activity (MIC); conditions: Proteus mirabilis, 90, P. mirabilis 90; read-out: MIC
Method in brief: as §1

[17] = tested on: S. aureus 1059B; assay: In vitro antibacterial activity (MIC); conditions: Staphylococcus aureus, read-out: MIC
Method in brief: as §1

[18] = tested on: S. faecalis C1; assay: In vitro antibacterial activity (MIC); conditions: Enterococcus faecalis; S. faecalis C1; read-out: MIC
Method in brief: as §1

[19] = tested on: S. marcescens S2; assay: In vitro antibacterial activity (MIC); conditions: Serratia marcescens; S. marcescens S2; read-out: MIC
Method in brief: as §1

[20] = tested on: S. marcescens S3; assay: In vitro antibacterial activity (MIC); conditions: Serratia marcescens; S. marcescens S3; read-out: MIC
Method in brief: as §1

[21] = tested on: S. pneumoniae 6301; assay: In vitro antibacterial activity (MIC); conditions: Streptococcus pneumoniae, 6301, S. pneumoniae 6301; read-out: MIC
Method in brief: as §1

[22] = tested on: S. marcescens S5; assay: In vitro antibacterial activity (MIC); conditions: Serratia marcescens, S5, S. marcescens S5; read-out: MIC
Method in brief: as §1

[23] = tested on: S. aureus Giorgio; assay: In vitro antibacterial activity (MIC); conditions: Staphylococcus aureus, S. aureus Giorgio; read-out: MIC
Method in brief: as §1

[24] = C. freundii 8ASM, read-out: MIC
[25] = Klebsiella aerogenes, E. aerogenes 8, read-out: MIC
[26] = Enterobacter cloacae, 6951, E. cloacae 6951, read-out: MIC
[27] = Escherichia coli, 503455, E. coli 503-455, read-out: MIC
[28] = Klebsiella pneumoniae, 8357, K. pneumoniae 8357, read-out: MIC
[29] = Escherichia coli, 257, E. coli 257, read-out: MIC
[30] = Klebsiella aerogenes, 8, E. aerogenes 8

SMILES | MIC ([1]; Escherichia coli, 257) | MIC [2, 24] | MIC [3] | MIC [4, 25] | MIC [5] | MIC [6] | MIC [7] | MIC [8, 26] | MIC ([9]; read-out: MIC) | MIC [10, 27] | MIC [11, 28] | MIC [12] | MIC [13] | MIC [15] | MIC [16] | MIC [17] | MIC [19] | MIC [20] | MIC [21] | MIC [22] | further results
CC1(C)S[C@@H]2[C@H](N=CN3CCC(c4ncc[nH]4)CC3)C(=O)N2[C@H]1C(=O)O [O, [2S-(2alpha,5alpha,6beta)]-6-[[[4-(1H-imidazol-2-yl-1-piperidinyl]methylene]amino]-3,3-dimethyl-7-oxo-4-thia-1-azabicyclo[3.2.0]heptane-2-carboxylic acid hydrochloride trihydrate] | 0.125 µg/mL | 0.062 µg/mL | > 128 µg/mL | 32 µg/mL | 0.5 µg/mL | 1 µg/mL | 0.5 µg/mL | 16 µg/mL | 0.5 µg/mL | 1 µg/mL | 0.5 µg/mL | 0.5 µg/mL | 0.5 µg/mL | 0.5 µg/mL | 0.5 µg/mL | > 128 µg/mL | 0.5 µg/mL | 0.25 µg/mL | 1 µg/mL |  | MIC [14]: > 128 µg/mL; MIC [18]: 32 µg/mL
Cc1nccn1CCCC1CCN(C=N[C@@H]2C(=O)N3[C@@H]2SC(C)(C)[C@@H]3C(=O)O)CC1 [F, [2S-(2alpha,5alpha,6beta)]-3,3-dimethyl-6-[[[4-[3-(2-methyl-1H-imidazol-1-yl)propyl]-1-piperidinyl]methylene]amino]-7-oxo-4-thia-1-azabicyclo[3.2.0]heptane-2-carboxylic acid 1.15 molar hydrochloride 1.75 molar hydrate] |  | 0.062 µg/mL | 4 µg/mL | 32 µg/mL | 0.125 µg/mL | 0.25 µg/mL | 0.25 µg/mL | 8 µg/mL |  | 2 µg/mL |  | 0.5 µg/mL | 0.25 µg/mL | 0.25 µg/mL | 0.5 µg/mL | 64 µg/mL | 0.25 µg/mL | 0.25 µg/mL | 1 µg/mL | 1 µg/mL | MIC [1, 29]: 0.125 µg/mL; MIC ([9]; 9570A): 0.25 µg/mL; MIC ([11]; Klebsiella pneumoniae, 8357): 1 µg/mL; MIC [14]: > 128 µg/mL; MIC [18]: 128 µg/mL
CC1(C)S[C@@H]2[C@H](N=CN3CCC(Cn4ccnc4N)CC3)C(=O)N2[C@H]1C(=O)O [H, [2S-(2alpha,5alpha,6beta)]-6-[[[4-[(2-amino-1H-imidazol-1-yl)methyl-1-piperidinyl]methylene]amino]-3,3-dimethyl-7-oxo-4-thia-1-azabicyclo[3.2.0]heptane-2-carboxylic acid hydrochloride] | 0.25 µg/mL | 0.031 µg/mL | 8 µg/mL |  | 0.125 µg/mL | 0.25 µg/mL | 0.25 µg/mL |  | 0.25 µg/mL |  | 0.125 µg/mL | 0.125 µg/mL | 0.5 µg/mL | 0.125 µg/mL | 0.125 µg/mL | 128 µg/mL | 0.062 µg/mL | 0.125 µg/mL | 1 µg/mL | 0.5 µg/mL | MIC [4, 30]: 32 µg/mL; MIC ([8]; Enterobacter cloacae, 6951): 4 µg/mL; MIC ([10]; Escherichia coli, 503455): 1 µg/mL; MIC [14]: > 128 µg/mL; MIC [18]: 64 µg/mL
CCc1nc(C)cn1CCCC1CCN(C=N[C@@H]2C(=O)N3[C@@H]2SC(C)(C)[C@@H]3C(=O)O)CC1 [G, [2S-(2alpha,5alpha,6beta)]-6-[[[4-[3-(2-ethyl-4methyl-1H-imidazol-1-yl)propyl]piperidinyl]methylene]amino]-3,3-dimethyl-7-oxo-4-thia-1-azabicyclo[3.2.0]heptane-2-carboxylic acid hydrochloride] | 0.25 µg/mL |  | 8 µg/mL | 16 µg/mL | 0.25 µg/mL | 0.5 µg/mL | 0.5 µg/mL | 16 µg/mL | 0.5 µg/mL | 4 µg/mL |  | 1 µg/mL | 0.25 µg/mL | 0.5 µg/mL | 1 µg/mL | 128 µg/mL | 1 µg/mL | 1 µg/mL | 1 µg/mL | 2 µg/mL | MIC [2]: 0.125 µg/mL; MIC ([11]; Klebsiella pneumoniae, 8357): 1 µg/mL; MIC [14]: > 128 µg/mL; MIC [18]: 128 µg/mL
CC1(C)S[C@@H]2[C@H](N=CN3CCC(CCCn4ccnc4CO)CC3)C(=O)N2[C@H]1C(=O)O [R, [2S-(2alpha,5alpha,6beta)]-6-[[[4-[3-[2-(hydroxymethyl)-1H-imidazol-1-yl]propyl-1-piperidinyl]methylene]amino]-3,3-dimethyl-7-oxo-4-thia-1-azabicyclo[3.2.0]heptane-2-carboxylic acid hydrochloride 1.1 molar hydrate] |  | < 0.008 µg/mL | 0.5 µg/mL |  | 0.5 µg/mL | 0.25 µg/mL | 0.062 µg/mL | 8 µg/mL | 0.062 µg/mL | 0.5 µg/mL | 0.062 µg/mL |  |  | 0.062 µg/mL | 0.5 µg/mL | 64 µg/mL | 0.125 µg/mL | 0.125 µg/mL |  | 1 µg/mL | MIC [1, 29]: 0.016 µg/mL; MIC [4, 30]: 32 µg/mL
CC1(C)S[C@@H]2[C@H](N=CN3CCCC(c4ncc[nH]4)C3)C(=O)N2[C@H]1C(=O)O (stereo partly drawn) [P, [2S-(2alpha,5alpha,6beta)]-6-[[[3-(1H-imidazol-2-yl)-1-piperidinyl]methylene]amino]-3,3-dimethyl-7-oxo-4-thia-1-azabicyclo[3.2.0]heptane-2-carboxylicacid hydrochloride] | 2 µg/mL | 2 µg/mL | > 128 µg/mL | 16 µg/mL | 8 µg/mL | 8 µg/mL | 8 µg/mL | > 128 µg/mL | 8 µg/mL | 64 µg/mL | 8 µg/mL | 8 µg/mL |  | 4 µg/mL | 8 µg/mL | 64 µg/mL | 8 µg/mL | 8 µg/mL | 1 µg/mL | > 128 µg/mL | MIC [23]: 4 µg/mL
CN(C)C=Nc1nccn1CCCC1CCN(C=N[C@@H]2C(=O)N3[C@@H]2SC(C)(C)[C@@H]3C(=O)O)CC1 [S, [2S-(2alpha,5alpha,6beta)]-6-[[[4-[3-[2-[[(dimethylamino)methylene]amino]-1H-imidazol-1-yl]propyl]-1-piperidinyl]methylene]amino]-3,3-dimethyl-7-oxo-4-thia-1-azabicyclo[3.2.0]heptane-2-carboxylic acid 1.7 molar hydrochloride 2.6 molar hydrate] |  | 0.125 µg/mL | 2 µg/mL |  | 4 µg/mL | 1 µg/mL | 1 µg/mL | 8 µg/mL | 1 µg/mL |  | 0.5 µg/mL |  |  | 1 µg/mL | 4 µg/mL | 64 µg/mL | 2 µg/mL | 2 µg/mL |  | 4 µg/mL | MIC [1, 29]: 0.25 µg/mL; MIC [4, 30]: 32 µg/mL; MIC ([10]; Escherichia coli, 503455): 1 µg/mL
